For data set [1] the following is noted: from C=CCOC1(C)CCN(c2c([C@H](OC(C)(C)C)C(=O)OC)c(C)nc3cc(-c4cccc(-c5cc(CC)ccc5O[C@@H](C)CC=C)c4)nn23)CC1; rcm bond; 20-membered ring; Hoveyda-Grubbs II (name truncated)/CuI; DCE; 1.09 mM; 3.0 h.
For data set [2] the following is noted: rcm bond.
For another data set, the system named is NL-RLuc virus. Put plainly: Inhibition of HIV replication (NL-RLuc luciferase reporter virus in MT-2 cells). Type of data set: cell-based. Particulars: Human immunodeficiency virus 1, MT2, 120 h. (In general: A reporter such as luciferase makes a cellular process visible.)

Like-named read-outs stand apart in the source and are kept apart here.

The EC50 is the concentration at which the effect is half-maximal. Low values mean an effect from little substance, high ones a need for much substance.

`CCc1ccc2c(c1)-c1cccc(c1)-c1cc3nc(C)c([C@H](OC(C)(C)C)C(=O)OC)c(n3n1)N1CCC(C)(CC1)OCC=CC[C@H](C)O2` displayed a ring closure, crude yield in data set [1] of 92%.
Regarding `CCOC(=O)[C@@H](OC(C)(C)C)c1c(C)nc2cc3nn2c1N1CCC(C)(CC1)OC/C=C/[C@H](C)Oc1ccc(F)cc1-c1cccc-3c1`, in data set [2] (from C=CCOC1(C)CCN(c2c([C@H](OC(C)(C)C)C(=O)OCC)c(C)nc3cc(-c4cccc(-c5cc(F)ccc5O[C@@H](C)C=C)c4)nn23)CC1, 19-membered ring, Grubbs II (0.1 eq)/CuI, DCE, 1.36 mM, 2.0 h), the ring closure, isolated yield came to 67.3%.
For `COC(=O)[C@@H](OC(C)(C)C)c1c(C)nc2cc3nn2c1N1CCC(C)(CC1)OCC=CC[C@H](C)Oc1cc(F)cc(F)c1-c1cccc-3c1`, in data set [2] (from C=CCOC1(C)CCN(c2c([C@H](OC(C)(C)C)C(=O)OC)c(C)nc3cc(-c4cccc(-c5c(F)cc(F)cc5O[C@@H](C)CC=C)c4)nn23)CC1, 20-membered ring, Hoveyda-Grubbs II (2 x 0.05 eq), toluene, 1.26 mM, 80.0 °C, 3.0 h), the ring closure, isolated yield is 48%.
With `CCOC(=O)[C@@H](OC(C)(C)C)c1c(C)nc2cc3nn2c1N1CCC(C)(CC1)OC/C=C/[C@H](C)Oc1cc(C)ccc1-c1cccc-3c1`, the ring closure, isolated yield in data set [2] (from C=CCOC1(C)CCN(c2c([C@H](OC(C)(C)C)C(=O)OCC)c(C)nc3cc(-c4cccc(-c5ccc(C)cc5O[C@@H](C)C=C)c4)nn23)CC1, 19-membered ring, Grubbs II (0.1 eq)/CuI, DCE, 1.32 mM, 2.0 h) came to 69.5%.
In the case of `CCOC(=O)[C@@H](OC(C)(C)C)c1c(C)nc2cc3nn2c1N1CCC(C)(CC1)OCC=CC[C@H](C)Oc1ccc(C(=O)OC)cc1-c1cccc-3c1`, the ring closure, isolated yield in data set [2] (from C=CCOC1(C)CCN(c2c([C@H](OC(C)(C)C)C(=O)OCC)c(C)nc3cc(-c4cccc(-c5cc(C(=O)OC)ccc5O[C@@H](C)CC=C)c4)nn23)CC1, 20-membered ring, Hoveyda-Grubbs II (0.1 eq)/CuI, DCE, 1.52 mM, 80.0 °C, 3.0 h) worked out at 83%.
As to `CCOC(=O)[C@@H](OC(C)(C)C)c1c(C)nc2cc3nn2c1N1CCC(C)(CC1)OC/C=C/C(C)Oc1cc(F)ccc1-c1cccc-3c1` (stereo partly drawn), in data set [2] (from C=CCOC1(C)CCN(c2c([C@H](OC(C)(C)C)C(=O)OCC)c(C)nc3cc(-c4cccc(-c5ccc(F)cc5O[C@@H](C)C=C)c4)nn23)CC1, 19-membered ring, Grubbs II (0.1 eq)/CuI, DCE, 1.27 mM, 2.0 h), the ring closure, isolated yield is 96%.
For `CCOC(=O)[C@@H](OC(C)(C)C)c1c(C)nc2cc3nn2c1N1CCC(C)(CC1)OC/C=C/[C@H](C)Oc1ccc(C)c(F)c1-c1cccc-3c1`, the ring closure, isolated yield in data set [2] (from C=CCOC1(C)CCN(c2c([C@H](OC(C)(C)C)C(=O)OCC)c(C)nc3cc(-c4cccc(-c5c(O[C@@H](C)C=C)ccc(C)c5F)c4)nn23)CC1, 19-membered ring, Grubbs II (0.1 eq)/CuI, DCE, 1.33 mM, 2.0 h) amounted to 94%.
`COC(=O)[C@@H](OC(C)(C)C)c1c(C)nc2cc3nn2c1N1CCC(C)(CC1)OC/C=C/C[C@H](C)Oc1cc(C)cc(F)c1-c1cccc-3c1` showed a ring closure, isolated yield in data set [2] (from C=CCOC1(C)CCN(c2c([C@H](OC(C)(C)C)C(=O)OC)c(C)nc3cc(-c4cccc(-c5c(F)cc(C)cc5O[C@@H](C)CC=C)c4)nn23)CC1, 20-membered ring, Ru-SIMes catalyst (name truncated), 3.0 h) of 78%.
Compound `CCOC(=O)[C@@H](OC(C)(C)C)c1c(C)nc2cc3nn2c1N1CCC(C)(CC1)OC/C=C/[C@H](C)Oc1cc(C)cc(F)c1-c1cccc-3c1` returned a ring closure, isolated yield in data set [2] (from C=CCOC1(C)CCN(c2c([C@H](OC(C)(C)C)C(=O)OCC)c(C)nc3cc(-c4cccc(-c5c(F)cc(C)cc5O[C@@H](C)C=C)c4)nn23)CC1, 19-membered ring, Grubbs II (0.1 eq)/CuI, DCE, 1.09 mM, 2.0 h) of 72%.
In turn, `Cc1cc(F)c2c(c1)O[C@@H](C)/C=C/COC1(C)CCN(CC1)c1c([C@H](OC(C)(C)C)C(=O)O)c(C)nc3cc(nn13)-c1cccc-2c1` [Example 17, (2S)-2-(tert-Butoxy)-2-[(22S,23E)-16-fluoro-4,18,22,27-tetramethyl-21,26-dioxa-1,5,7,8-tetraazahexacyclo[25.2.2.1^6,9.1^10,14.0^2,7.0^15,20]tritriaconta-2,4,6(33),8,10(32),11,13,15(20),16,18,23-undecaen-3-yl]acetic acid] displayed an EC50 in the data set on NL-RLuc virus of 9 nM.
For `Cc1nc2cc3nn2c(c1[C@H](OC(C)(C)C)C(=O)O)N1CCC(C)(CC1)OC/C=C/[C@H](C)Oc1cc(F)ccc1-c1cccc-3c1` [Example 9, (2S)-2-(tert-Butoxy)-2-[(23E)-18-fluoro-4,22,27-trimethyl-21,26-dioxa-1,5,7,8-tetraazahexacyclo[25.2.2.1^6,9.1^10,14.0^2,7.0^15,20]tritriaconta-2,4,6(33),8,10(32),11,13,15(20),16,18,23-undecaen-3-yl]acetic acid], the response in the data set with NL-RLuc virus was half-maximal at 6 nM (EC50).
On the same count and under the same terms, as for `COc1ccc2c(c1)-c1cccc(c1)-c1cc3nc(C)c([C@H](OC(C)(C)C)C(=O)O)c(n3n1)N1CCC(C)(CC1)OCCCC[C@H](C)O2` [Example 8, (2S)-2-(tert-Butoxy)-2-[(22S)-17-methoxy-4,22,28-trimethyl-21,27-dioxa-1,5,7,8-tetraazahexacyclo[26.2.2.1^6,9.1^10,14.0^2,7.0^15,20]tetratriaconta-2,4,6(34),8,10(33),11,13,15(20),16,18-decaen-3-yl]acetic acid], the figure is 5 nM; as for `Cc1ccc2c(c1)-c1cccc(c1)-c1cc3nc(C)c([C@H](OC(C)(C)C)C(=O)O)c(n3n1)N1CCC(C)(CCC=CCC(C)O2)CC1` (stereo in doubt) [Example 20, (2S)-2-(tert-Butoxy)-2-[(22S)-4,17,22,28-tetramethyl-21-oxa-1,5,7,8-tetraazahexacyclo[26.2.2.1^6,9.1^10,14.0^2,7.0^15,20]tetratriaconta-2,4,6(34),8,10(33),11,13,15(20),16,18,24-undecaen-3-yl]acetic acid], 133 nM; as for `Cc1nc2cc3nn2c(c1[C@H](OC(C)(C)C)C(=O)O)N1CCC(C)(CCCCCC(C)Oc2ccc(C#N)cc2-c2cccc-3c2)CC1` (stereo in doubt) [Example 23, (2S)-2-(tert-Butoxy)-2-[(22S)-17-cyano-4,22,28-trimethyl-21-oxa-1,5,7,8-tetraazahexacyclo[26.2.2.1^6,9.1^10,14.0^2,7.0^15,20]tetratriaconta-2,4,6(34),8,10(33),11,13,15(20),16,18-decaen-3-yl]acetic acid], 24 nM.
The same measure, in the same setting: as for `Cc1cc(F)c2c(c1)O[C@@H](C)CCCCOC1(C)CCN(CC1)c1c([C@H](OC(C)(C)C)C(=O)O)c(C)nc3cc(nn13)-c1cccc-2c1` [Example 5, (2S)-2-(tert-Butoxy)-2-[(22S)-16-fluoro-4,18,22,28-tetramethyl-21,27-dioxa-1,5,7,8-tetraazahexacyclo[26.2.2.1^6,9.1^10,14.0^2,7.0^15,20]tetratriaconta-2,4,6(34),8,10(33),11,13,15(20),16,18-decaen-3-yl]acetic acid], the figure is 22 nM; as for `Cc1ccc2c(c1)-c1cccc(c1)-c1cc3nc(C)c([C@H](OC(C)(C)C)C(=O)O)c(n3n1)N1CCC(C)(CCCCC[C@H](C)O2)CC1` [Example 21, (2S)-2-(tert-Butoxy)-2-[(22S)-4,17,22,28-tetramethyl-21-oxa-1,5,7,8-tetraazahexacyclo[26.2.2.1^6,9.1^10,14.0^2,7.0^15,20]tetratriaconta-2,4,6(34),8,10(33),11,13,15(20),16,18-decaen-3-yl]acetic acid], 150 nM; as for `Cc1nc2cc3nn2c(c1[C@H](OC(C)(C)C)C(=O)O)N1CCC(C)(CC1)OCCCC[C@H](C)Oc1cc(F)c(F)cc1-c1cccc-3c1` [Example 2, (2S)-2-(tert-Butoxy)-2-[(22S)-17,18-difluoro-4,22,28-trimethyl-21,27-dioxa-1,5,7,8-tetraazahexacyclo[26.2.2.1^6,9.1^10,14.0^2,7.0^15,20]tetratriaconta-2,4,6(34),8,10(33),11,13,15(20),16,18-decaen-3-yl]acetic acid], 26 nM.
Same read-out and setting: as for `CCc1ccc2c(c1)-c1cccc(c1)-c1cc3nc(C)c([C@H](OC(C)(C)C)C(=O)O)c(n3n1)N1CCC(C)(CC1)OC/C=C/C[C@H](C)O2` [Example 6, (2S)-2-(tert-Butoxy)-2-[(22S)-17-ethyl-4,22,28-trimethyl-21,27-dioxa-1,5,7,8-tetraazahexacyclo[26.2.2.1^6,9.1^10,14.0^2,7.0^15,20]tetratriaconta-2,4,6(34),8,10(33),11,13,15(20),16,18,24-undecaen-3-yl]acetic acid], the figure is 31 nM.

These data come from patent US10125148B2, “Pyrazolopyrimidine macrocycles as inhibitors of human immunodeficiency virus replication” (priority 2014, dated 2018).
